Here are results for five molecules from patent publication US11207379B2, “Peptides with anti-cancer activity” (IDP DISCOVERY PHARMA, S.L., priority 2016, dated 2021).

By EC50 is commonly meant the concentration that produces a half-maximal response. Low values mean greater potency, high ones weaker potency.

Numbered stars: 1 amine (or outer) side, 2 acyl side, 3 side chain; on linkers, the order of the positions; unused ones are H or OH. Bridge positions count the residues as written; N and C are the ends. Square brackets hold non-standard residues; d marks the D form. Ends that are not written are not given here. Peptide text beside a SMILES is read from it. ξ: configuration not given here. ξαMeNle(6-ylidene) = CC(CCCC=[*:3])(N[*:1])C(=O)[*:2]; X1 = CC(CCCCCCC=[*:3])(N[*:1])C(=O)[*:2]; Suc = O=C(CCC(=O)[*:2])[*:1]

Data set [1] concerns the target HL-60, promyeloblast (acute myelocytic leukemia, AML). Briefly: Viability assay (MTT, Alamar Blue, hexosaminidase), 72 h. It counts as cell-based. As to the method:
HL-60, promyeloblast (acute myelocytic leukemia, AML), ECACC: 98070106
(§1) Cell lines A549, MCF-7 and RAMOS were cultured in incubator under CO2 (6%) at 37° C. in DMEM high glucose (Dulbecco's Modified Eagle Solution, Gibco-BRL 31966-21) medium with 10% fetal bovine serum inactivated (FBS) (Gibco-BRL 10106-169). Cell lines HL-60 and MM.1S were cultured in incubator at 37° C. in RPMI-1640 (Sigma R8758) medium with 10% of fetal bovine serum inactivated (FBS) and 2 mM glutamine (Sigma G7513). Cell lines BJ were cultured in incubator under CO2 (6%) at 37° C. in Eagle's Minimum Essential Medium (Sigma, M-2279) with 10% fetal bovine serum inactivated (FBS) (Gibco-BRL 10106-169).
(§2) During the amplification step and the assays adherent cells were rinsed with DPBS (Dulbecco's Phosphate Buffered Saline, Sigma D1283) three times and afterward treated for 5 minutes with trypsin ([…]) (Gibco-BRL, 15400054) in solution of DPBS at 37° C., and, once detached, transferred in the culturing medium. No-adherent cells were centrifuged and transferred in the culturing medium. Cells were counted in a Neubauer chamber after labelling with Tripan-Blue.
(§3) A549, MCF-7 and JB cells were seeded at a density of 5000 cells/well and HL-60, MM.1S and Ramos at 10000 cells/well in 100 μl of medium in 96 well plates. After 24 h, the compounds to be tested were added to calculate the dose/response curve at the starting concentration of 100 μM with serial dilutions (1:1). Controls are the untreated cells. Each experiment was performed in triplicate.
(§4) Cells were incubated during 72 h in incubator under CO2 atmosphere at 37° C. Cell viability was measured by means of MTT (3-(4,5-dimethylthiazol-2-yl)-2.5-diphenyltetrazolium bromide) assay, Alamar Blue® (Biosource DAL1100) and Hexosaminidase activity test, consecutively, following manufacturer instructions.
(§5) MTT: 1. Stock solution of MTT (475989 Calbiochem) was 5 mg/ml in PBS 1×. As negative control (experiment noise) 3 wells were treated with 20 μl/well of a solution of SDS 10% in H2O. The same control was used for Alamar Blue/Hexosaminidase. 10 μl/well of MTT solution were added and the plate was incubated for 3-4 hr. The medium was discarded and 100 μl of extracting buffer (PBS 1×, 15% SDS, 50% […] N,N-Dimethylformamide, pH 4.7) were added to each well. Plates were incubated for 16 h at room temperature under orbital shaking. Absorbance at 570 nm was finally measured.
(§6) Alamar Blue: 10 μl Alamar Blue solution was added to each well and the plates were incubated for […] in the incubator. Fluorescence ratio at 535/590 (excitation/emission) was measured in Cytofluor (Millipore) fluorimeter. Blank control was determined by lysis of untreated cells with con 2% of Triton X100, right before adding Alamar Blue solution.
(§7) Hexosaminidase activity test: after Alamar Blue lecture, medium was discarded and plates were rinsed once with PBS. 60 μl hexosaminidase substrate (p-nitrophenol-N-acetyl-beta-D-glucosamide 7.5 mM [Sigma N-9376], sodium citrate 0.1 M, pH 5.0, 0.25% Triton X-100) was added to each well and the plates were incubated at 37° C. for 2-5 h, according to the cell type (hexosaminidase activity changes according to the cell type). […] Blank control was the same as described before.
(§8) Data analysis was performed calculating the percentage of cell viability normalized vs. the values of negative control, which was considered equal to 100%. The dose/response curve was fitted through the sigmoidal equation dose-response (variable slope) and the EC50 values were calculated as follow: Y=Bottom+(Top−Bottom)/(1+10^{[(Log EC50−X)*HillSlope]},
A general note: Alamar Blue is a resazurin reagent that responds to reducing activity.

Data set [2] deals with MCF-7, epithelial (breast cancer). The data set is described as above. It counts as cell-based. How it is done: MCF-7, epithelial (breast cancer), ECACC: 86012803
as §1, §2, §3, §4, §5, §6, §7, §8

A further data set has as its system several tumor cell lines. Briefly: Anticancer activity in viability assay, stated in words. Format: cell-based. As to the method:
as §3, §4, §8

The target of data set [3] is MM.1S, B Lymphoblast (multiple myeloma). The data set can be described thus: Viability assay (MTT, Alamar Blue, hexosaminidase), 72 h. It counts as cell-based. How it is done:
MM.1S, B Lymphoblast (multiple myeloma), ATCC: CRL-2974
as §1, §2, §3, §4, §5, §6, §7, §8

Data set [4] deals with RAMOS, B lymphocyte (Burkitt's Lymphoma). The data set is described as above. It counts as cell-based. How it is done: RAMOS, B lymphocyte (Burkitt's Lymphoma), ATCC: CRL-1596
as §1, §2, §3, §4, §5, §6, §7, §8

For data set [5], the target named is A549, epithelial (lung cancer). The data set is described as above. It counts as cell-based. As to the method: A549, epithelial (lung cancer), ATCC:CCL-185
as §1, §2, §3, §4, §5, §6, §7, §8

The nature of data set [6]: Stability test in human plasma, 37 °C, UPLC-MS/MS. It counts as in vitro ADME. How it is done:
Reagents: ACN LC-MS (Scharlab AC03712500); MeOH LC-MS (Scharlab ME03262500); IPA LC-MS (Scharlab AL03262500); HCOOH (Carlo Erba 405792); DPBS (Lonza BE17-512F); human plasma with EDTAK2 as anticoagulant were provided by Centre d'Investigació de Medicaments located at the Hospital de la Santa Creu i Sant Pau, C/. Sant Antoni Maria Claret 167, Pavelló Sant Frederic, 08025 Barcelona. Plasma was extracted from a healthy patient on 1 Feb. 2015. It was kept at −20° C. until the experiment day.
A calibration curve of eight non-zero concentration levels (from P1 to P8) was prepared in a concentration interval from 5 to 100 μM for S09. One blank sample of DPBS was also included. All calibration samples were analysed in duplicate. Calibration standard samples were prepared by addition of 30 μL of each calibration solution (from P1 to P8 and blank) to 270 μL of human plasma. Samples for incubation were prepared adding 15 μL of 1 mM solution of S09 to 135 μL of human plasma (final concentration 100 μM). 15 samples were prepared. Samples were incubated at 37° C. for 0, 0.5, 2, 6 and 24 h (three replicates were prepared for each incubation time).
An aliquot of 125 μL human plasma sample (blank, calibration standards and incubation samples) were processed using Sirocco™ Protein Precipitation plates (Waters). 375 μL of ACN were added to each well of the Sirocco plate. Then the samples were filtered applying vacuum (8-10 mm Hg) for about 5 minutes. The filtrates were evaporated under a steady stream of nitrogen (40° C.) and reconstituted with 150 μL of MeOH:H2O 0.1% HCOOH for analysis. Samples were analyzed by UPLC(ACQUITY Ultra Performance LC-MS/MS(API 3000).
UPLC conditions (X-Bridge C18 column; Pump A: H2O with 0.1% formic acid; Pump B Acetonitrile with 0.1% formic acid) using a linear gradient 5%-95% of B in 8 minutes (R. T.=5.95). The mean (out of 3 experiments) of the normalized percentage integrated area corresponding to the peak of S09 at different time are reported in table 11 below.

Take `CC(C)C[C@H](NC(=O)[C@H](C)NC(=O)[C@H](C)NC(=O)[C@H](Cc1ccccc1)NC(=O)[C@H](CO)NC(=O)[C@H](CCCNC(=N)N)NC(=O)[C@H](CCCCN)NC(=O)[C@H](CC(C)C)NC(=O)[C@H](CCC(=O)O)NC(=O)[C@H](CC(N)=O)NC(=O)[C@H](CCCNC(=N)N)NC(=O)[C@H](CCCNC(=N)N)NC(=O)[C@H](CCC(N)=O)NC(=O)[C@H](CCCNC(=N)N)NC(=O)CCC(=O)O)C(=O)N[C@@H](CCCNC(=N)N)C(=O)N[C@@H](CC(=O)O)C(=O)N[C@@H](CCC(N)=O)C(=O)O` [IDP-L12] (Suc-RQRRNELKRSFAALRDQ-OH; N-terminus and C-terminus assumed): the EC50 in data set [1], in data set [2], in data set [3] and in data set [4] was greater than 100 µM in each case. Also, in the data set on several tumor cell lines, the “anticancer activity (active / inactive)” value is “inactive”.

Consider `CC(C)C[C@H](NC(=O)[C@H](C)NC(=O)[C@H](C)NC(=O)[C@H](Cc1ccccc1)NC(=O)[C@H](C)NC(=O)[C@H](CCCNC(=N)N)NC(=O)[C@H](CCCCN)NC(=O)[C@H](CC(C)C)NC(=O)[C@H](CCC(=O)O)NC(=O)[C@H](CC(N)=O)NC(=O)[C@H](CCCNC(=N)N)NC(=O)[C@H](CCCNC(=N)N)NC(=O)[C@H](CCC(N)=O)NC(=O)[C@H](CCCNC(=N)N)NC(=O)CCC(=O)O)C(=O)N[C@@H](CCCNC(=N)N)C(=O)N[C@@H](CC(=O)O)C(=O)N[C@@H](CCC(N)=O)C(=O)O` [IDP-L13, RQRRNELKRAFAALRDQ] (Suc-RQRRNELKRAFAALRDQ-OH; N-terminus and C-terminus assumed), for which the EC50 in data set [1], in data set [2], in data set [3] and in data set [4] was greater than 100 µM in each case. Also, the “anticancer activity (active / inactive)” value in the data set with several tumor cell lines is “inactive”.

Regarding `CC[C@H](C)[C@H](NC(=O)[C@H](Cc1ccc(O)cc1)NC(=O)[C@H](C)NC(=O)[C@H](CC(C)C)NC(=O)[C@H](C)NC(=O)[C@H](CCCCN)NC(=O)[C@H](CCCCN)NC(=O)[C@H](Cc1ccccc1)NC(=O)[C@@H](NC(=O)[C@@H](NC(=O)[C@@H](NC(=O)[C@H](CCCCN)NC(=O)[C@@H]1CCCN1)[C@@H](C)CC)C(C)C)[C@@H](C)CC)C(=O)O` [IDP-L14α, Pro-Lys-Val-Val-Ile-Leu-Lys-Lys-Ala-Thr-Ala-Tyr-Ile], the EC50 in data set [1], in data set [2], in data set [3], in data set [4] and in data set [5] was greater than 100 µM in each case. Besides, the “anticancer activity (active / inactive)” value in the data set with several tumor cell lines is “inactive”.

Regarding `CC[C@H](C)[C@H](NC(=O)[C@H](Cc1ccc(O)cc1)NC(=O)[C@H](C)NC(=O)C1(C)CCCC=CCCCCCCC(C)(NC(=O)[C@H](CCCCN)NC(=O)[C@@H]2CCCN2C(=O)[C@H](C)N)C(=O)N[C@@H](C(C)C)C(=O)N[C@@H]([C@@H](C)CC)C(=O)N[C@@H](CC(C)C)C(=O)N[C@@H](CCCCN)C(=O)N[C@@H](CCCCN)C(=O)N[C@@H](C)C(=O)N1)C(=O)N[C@@H](CC(C)C)C(=O)N[C@@H](CO)C(=O)O` (some centres unmarked) [IDP-S09, APKXVILKKAXAYILS-OH] (H-APK[X1]VILKKA[ξαMeNle(6-ylidene)]AYILS-OH; staple 4-11; N-terminus assumed), the “% Remaining of active metabolyte (mean)” value in data set [6] (100 μM, incubation time 0 h) was determined as 0%; in data set [6] (100 μM, incubation time 2 h), 0%; in data set [6] (100 μM, incubation time 6 h) it was 0%; in data set [6] (100 μM, incubation time 24 h), 0%. For the same molecule, in data set [6] (100 μM, incubation time 0 h), the “% Remaining of starting compound (mean)” value was 100%. Besides, in data set [6] (human plasma (EDTA-K2), incubation time 2 h, read-out: % Remaining of starting compound (mean)), the amount remaining at 2 h, 100 μM was determined as 106 ± 4.9%. Besides, the amount remaining at 6 h, 100 μM in data set [6] (human plasma (EDTA-K2), incubation time 6 h, read-out: % Remaining of starting compound (mean)) stood at 90 ± 16%. Moreover, in data set [6] (human plasma (EDTA-K2), incubation time 24 h, read-out: % Remaining of starting compound (mean)), the share remaining at 24 h, 100 μM was 97 ± 10%.

As for “NELKRSFFALRDQ-OH [IDP-L10, NELKRSFFALRDQ]”, the EC50 in data set [1], in data set [2], in data set [3] and in data set [4] was greater than 100 µM throughout. For the same molecule, the “anticancer activity (active / inactive)” value in the data set with several tumor cell lines was “inactive”.
